From patent US7476729B2, “Dbait and uses thereof” (Institut Curie, priority 2003, dated 2009)

Legend:
SK28 xenografted tumors = experiment: Radiosensitization of SK28 melanoma xenografted on nude mice; format: in vivo; details: SK, 6 × 5 Gy, 6 × 60 μg (3 nmole); for Relative risk: reference C* (Mock + irradiation)
Experimental: The protocol of Hep2 was described in FIG. 4.3. Other tumors were treated by a modified protocol where a 5 Gy fractionated irradiation was applied in three consecutive days, and followed four day rest, and the treatment was repeated once. The total irradiation dose (6×5 Gy) is equal to that of the protocol used to treat Hep2 tumor (15×2 Gy).
Descriptive analyses of the tumor response were performed for each treatment and each tumor type. Day 1 was the day of the first treatment session. […] Median lifetime was estimated according to the Kaplan-Meier method. TGD was calculated by subtracting the mean tumor volume quadrupling time of the control group from tumor volume quadrupling times of individual mice in each treated group. The mean TGD was calculated for each treated group using the individual measurements.
The analysis used S-Plus 6.2 version software (MathSoft Inc., Seattle, Wash.) and statEL (ad Science, Paris, France). A global Log Rank was first performed for each group with a same tumor type. Then treatments with Dbait were compared to the mock-treated control. All tests were considered significant at the 0.05 significance level.

Hela cells = experiment: Clonogenic survival assay of Hela cells after 4×0.5 Gy irradiation; format: cell-based, human; details: 4×0.5 Gy spaced 2 hours, Dbait transfected with Superfect (83 nM or 2 μg)
Experimental: Exponentially growing cells in six-well plates were harvested and incubated with […] of complete DMEM containing a mixture of Dbait molecules and Superfect reagent (Qiagen, Courtaboeuf, France) in a ratio of 10 μl Superfect per μg DNA. After 5 h at 37° C. under standard conditions, the cells were washed with PBS and complete DMEM was added. Where indicated, cells were exposed to irradiation either in one session (10 Gy) 5 h after the beginning of transfection or in four sessions of 0.5 Gy administered with a ^137Cs unit (1 Gy/min) 3, 4, 5 and 6 h after the beginning of transfection and allowed to grow for two weeks. When plasmid integration was measured, 2 μg of plasmid was added to Dbait transfection and puromycin (1.7 μg/ml) was added to the growth medium 48 h after transfection. Plasmid transfection efficiency was estimated by analyzing 10,000 cells for GFP expression on a FACScan flow cytometer (FACSalibur, Beckton-Dickinson, USA).
Upon 8 hours transfection of Dbait molecules in Hela cells and four irradiation with 0.5 Gy fractionated irradiation spaced 2 hours (4×0.5 Gy), performed with γ-rays from a ^137Cs source, a significant reduction of clonogenic survival was observed as compared to untransfected cells. The results are given on FIG. 2.1 wherein Panel A gives the dose-dependence of normalized survival clone number in the presence of Dbait32 (SEQ ID NO: 1) and Dbait32H (SEQ ID NO: 1), and Panel B, the normalized survival clone number in the presence of different Dbait molecules at 83 nM (concentration in culture medium). Cell culture was in MEM supplemented with 10% serum. Superfect (Qiagene) was used as transfection agent according to the manufacturer's instruction.
Clonogenic survival was estimated as the number of treated cells forming colonies on the number of untreated cells.

[1] = tested on: U87 xenografted human glioblastoma; experiment: Radiosensitization of xenografted human glioblastoma (U87) on nude mice; format: in vivo; details: for Number of mice where Tumor volume <4 cm^3 At the day 25 (6 mice per group): 1 nmole/intratumoral injection, total 30 Gy
From the text: Radio-sensitization was also observed in mice xenografted with human glioblastoma tumors. The glioblastoma is the highest grade of brain-tumor, and is characterized by its extraordinary aggressive progression with fast fatal outcome and resistance to radio- and chemotherapies. 2-3 millions of U87 cells derived from human glioblastoma was first injected subcutaneously in nude mouse. The grafted tumor was then took out and used to seed subsequently other nude mice by subcutaneous transplant of about 8 mm^3 glioblastoma tumor.
50% mice in the arm which received Dbait32H (SEQ ID NO: 1) (1 nmole) by intratumoral injection and irradiation (1×15 Gy/week or 3×5 Gy/week, followed by one week rest, then second treatment cycle, the total dose of ionizing radiation was 30 Gy) had tumor volume<4 cm^3 at the day 25 after the start of treatment, whereas 100% mice in the control arms (untreated or irradiated and injected with saline solution (PBS) had tumor volume well exceeded 4 cm^3, and were killed before the end of the assay according to current regulation on animal ethics before the end of the treatment.
Table 3.1: Assay of radiosensitization of xenografted human glioblastoma on nude mice by Dbait32H (SEQ ID NO: 1) (1 nmole/intratumoral injection) previously named DRIL32-PEG. Two protocols of irradiation (5 hours after intratumoral injection) were used: 1×15 Gy/week, or 3×5 Gy/week, followed by one week rest, the second treatment cycle. The total irradiation dose was 30 Gy. Control groups were the untreated or the groups received saline solution (PBS) injection.

[2] = tested on: γ-H2AX foci in GMA32 cells; experiment: Immunodetection of γ-H2AX DSB foci in GMA32 cells; format: cell-based, Chinese hamster; details: GMA32, Dbait with lipofectamine, no irradiation
Experimental: Under the same conditions, the immunodetection of DSB foci of γ-H2AX phosphorylated on serine 139 by γ-H2AX labeling (bright dots or patches in nuclei) was performed in the untreated GMA32 cells, the cells transfected alone, or transfected with different Dbait molecules by lipofectamine. The counterstaining of cell membranes and nuclei were achieved by FITC-DiOC6 and DAPI. Similar effects of Dbait molecules were observed (FIG. 3.2). […] This provides visual evidence that these Dbait molecules can be used for trapping proteins involved in DSB repair via NHEJ pathway.
For immunodetection, the cells were grown on coverslip in 5 cm diameter Petri dishes 24 hours before the transfection with different Dbait molecules. One day after the transfection, FITC-DiOC6 (Molecular probes) was added in the medium 5 minutes at 37° C. (to counterstain the membranes). After 3 washing cycles, the cells were fixated with 4% PFA for 20 minutes.
After additional washing, γ-H2AX phosphorylated on serine 139 (γ-H2AX) was detected with. rabbit anti-γ-H2AX antibody (4411-PC, Trevigen) diluted 1/100 in 1×PBS, 1% BSA. Cells were washed three times with 1×PBS, 0.5%, TritonX-100, then incubated for 1 hour at room temperature with goat anti-rabbit antibodies Alexa 594 (Molecular Probes) diluted 1/100 in 1×PBS, 1% BSA. Cells were visualized by epifluorescence microscopy.

Dbait8H: hairpin double strand DNA with a stem of 8-bp (DNA ACGCACGG; DNA, backbone not given here; hairpin, hexaethyleneglycol loop, 3-bp phosphorothioate at free blunt end)
Mean % TGD (SK28 xenografted tumors): 194%
Mean TGD (SK28 xenografted tumors): 19
Median survival time (SK28 xenografted tumors): 76 days
Relative risk (SK28 xenografted tumors): 0.68

Dbait32H: hairpin double strand DNA with a stem of 32-bp, hexaethyleneglycol linker, phosphorothioate at the free blunt end (DNA ACGCACGGGTGTTGGGTCGTTTGTTCGGATCT; DNA, backbone not given here; hairpin, hexaethyleneglycol loop, 3-bp phosphorothioate at free blunt end)
clonogenic survival (Hela cells): significantly reduced clonogenic survival
mice with tumor volume<4 cm^3 at the day 25 ([1]; 1 nmole intratumoral and irradiation (1×15 Gy/week or 3×5 Gy/week)): 50%
Number of mice where Tumor volume <4 cm^3 At the day 25 (6 mice per group) ([1]; 1 × 15 Gy/week): 3/6
Number of mice where Tumor volume <4 cm^3 At the day 25 (6 mice per group) ([1]; 3 × 5 Gy/week): 3/6
Mean % TGD (SK28 xenografted tumors): 422%
Mean TGD (SK28 xenografted tumors): 64
Median survival time (SK28 xenografted tumors): 176 days
Number of cured mice (SK28 xenografted tumors): 2
Relative risk (SK28 xenografted tumors): 0.22
γ-H2AX DSB foci (cell response) [2]: effectively trigger similar cell response as if DNA damages were occurred in nuclei
